Experimental data taken from patent publication US4235912A, “Biologically active new 8β-hydrazinomethyl-ergoline derivatives and a process for the preparation thereof” (Richter Gedeon Vegyeszeti Gyar Rt, priority 1978, dated 1980).
“Also recorded” adds a separate entry of the source.

Key:
[1] = tested on: reserpine-induced depression; assay: antidepressant activity: reserpine-induced depression, maximum increase in body temperature; type: in vivo; details: mice
Description: The new 8β-hydrazinomethyl-ergoline derivatives show antidepressant effects as tested on mice suffering from reserpine-induced depression. An intraperitoneal dosage of 5 mg/kg of reserpine was applied to induce depression. 18 hours later the body temperature of the animals was measured, 30 mg/kg of the compound under examination were administered intraperitoneally into the animals, and the body temperature of the animals was measured hourly for 5 hours. The maximum increase in temperature (i.e. the maximum body temperature measured after administering the compound minus the initial value) was considered as the measure of the antidepressant activity. In these tests Imipramine was used as a reference substance.

[2] = tested on: serotonine-induced oedema; assay: antiserotonine effect in vivo: inhibition of serotonine-induced plantar oedema; set-up: species or system rat; details: for ED50: Rattus norvegicus, 50 μg serotonine into plantar region of rats
[3] = target: T1, serotonine receptors (Rattus norvegicus, UniProt P14842); assay: antiserotonine effect in vitro on isolated rat uterus sensitized with diethylstibestrol
T1 construct: isolated rat uterus sensitized with diethylstibestrol; from tissue; host or cells: isolated rat uterus, sensitized with diethylstilbestrol (printed 'diethylstibestrol')
T1 sequence (P14842 whole entry): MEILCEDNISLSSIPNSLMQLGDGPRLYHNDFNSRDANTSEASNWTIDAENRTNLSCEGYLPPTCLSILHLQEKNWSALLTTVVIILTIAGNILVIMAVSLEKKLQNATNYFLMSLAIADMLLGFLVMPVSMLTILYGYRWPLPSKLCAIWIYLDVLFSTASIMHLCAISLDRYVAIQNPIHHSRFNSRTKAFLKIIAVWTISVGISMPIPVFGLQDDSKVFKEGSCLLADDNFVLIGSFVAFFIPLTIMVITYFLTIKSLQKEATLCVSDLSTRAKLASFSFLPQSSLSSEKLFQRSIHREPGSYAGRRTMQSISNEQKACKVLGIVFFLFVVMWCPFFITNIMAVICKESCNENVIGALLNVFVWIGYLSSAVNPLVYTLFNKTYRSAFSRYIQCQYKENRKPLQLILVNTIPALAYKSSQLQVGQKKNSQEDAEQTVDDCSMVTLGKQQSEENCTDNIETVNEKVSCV

For `CNC(=S)NNC[C@@H]1C=C2c3cccc4[nH]cc(c34)C[C@H]2N(C)C1` [Example 14, 6-Methyl-8β-([N'-methylthiocarbamoyl-hydrazino]-methyl)-ergol-9-ene], the “antidepressant activity, in words” value [1] was “outstandingly effective; also recorded: superior to that of Imipramine”.

Work on `CC(=O)NNC[C@@H]1C[C@@H]2c3cccc4c3c(cn4C)C[C@H]2N(C)C1` [Example 7, 1,6-Dimethyl-8β-([N'-acetyl-hydrazino]-methyl)-ergoline] yielded an ED50 ([2]; po) of 3 to 10 mg/kg and an ED50 ([2]; sc) of 0.03 mg/kg.

Work on `CN(C)C(=O)NNC[C@@H]1C=C2c3cccc4[nH]cc(c34)C[C@H]2N(C)C1` [Example 8, 6-Methyl-8β-([N'-dimethylcarbamoyl-hydrazino]-methyl)-ergol-9-ene] yielded an ED50 ([2]; po) of 3 mg/kg, an ED50 ([2]; sc) of 0.16 mg/kg and an IC50 [3] of 2.95 nM.

Work on `CC(=O)NNC[C@@H]1C[C@@H]2c3cccc4[nH]cc(c34)C[C@H]2N(C)C1` [Example 4, 6-Methyl-8β-([N'-acetyl-hydrazino]-methyl)-ergoline] yielded an ED50 ([2]; po) of 3 mg/kg and an ED50 ([2]; sc) of 0.3 mg/kg.

With `CN(C)C(=O)NNC[C@@H]1C[C@@H]2c3cccc4[nH]cc(c34)C[C@H]2N(C)C1` [Example 6, 6-Methyl-8β-([N'-dimethylcarbamoyl-hydrazino]-methyl)-ergoline] the ED50 ([2]; po) was 3 mg/kg and the ED50 ([2]; sc) was 0.05 mg/kg.

Compound `CC[C@@H](CO)NC(=O)[C@@H]1C=C2c3cccc4c3c(cn4C)C[C@H]2N(C)C1` [Methysergide, 1-methyl lysergic acid butanolamide, reference compound] has an ED50 ([2]; po) of 0.64 mg/kg and an ED50 ([2]; sc) of 0.026 mg/kg.

`CC(=O)NNC[C@@H]1C=C2c3cccc4[nH]cc(c34)C[C@H]2N(C)C1` [Example 9, 6-Methyl-8β-([N'-acetyl-hydrazino]-methyl)-ergol-9-ene] was tested, and the ED50 ([2]; po) was 0.78 mg/kg, the ED50 ([2]; sc) was 0.055 mg/kg and the “inhibition of serotonine-induced oedema, in words” value ([2]; parenteral and oral administration) was “outstandingly effective”. For the same compound, the IC50 [3] was 3.22 nM.
